# US7699995B2, “Water treatment method” (priority 2006, dated 2010)
# Assays:
# [1] = system: Mycobacterium chelonae (ATCC 14472); test: MBC test, transfer from MIC plates to fresh media; assay type: cell-based; settings: M. chelonae, no survivors after 2 days in fresh media
# Method: (§1) Bacterial strains tested included Mycobacterium chelonae (ATCC 14472) and Mycobacterium immunogenum (ATCC 700505). Mycobacterial cultures were grown overnight at 30° C. (M. immunogenum) or 37° C. (M. chelonae), in a rotary shaking bath in Middlebrook […] with Middlebrook enrichment. A 1:20 dilution of the overnight culture was made into the appropriate test media and inoculated to give a final concentration of 10^6 to 10^7 CFU/ml.
# (§2) MBC tests were conducted by transferring samples from the MIC test samples into fresh media and observing for growth of the culture. Growth was determined as above. In this test using Biomek 2000 Workstation, 10 μl samples taken from the 96-well MIC plates were placed in […] of fresh growth media to determine the number of surviving organisms for the same gradient of biocide concentrations. These plates were incubated and read in the same fashion as the MIC plates.
# [2] = system: Mycobacterium immunogenum (ATCC 700505); test: MBC test, transfer from MIC plates to fresh media; assay type: cell-based; settings: M. immunogenum, no survivors after 2 days in fresh media
# Method: as §1, §2
# [3] = system: natural, resident populations of Mycobacterium; test: Eradication of mycobacteria in naturally contaminated in-use metalworking fluids; assay type: cell-based; settings: for No. of Fluids with ≧99% Kill (2-log reduction): of six fluids, 48 hours
# Method: A comparative study was conducted evaluating six metalworking fluid biocides versus natural, resident populations of Mycobacterium from six in-use metalworking fluids. CMIT/MIT, CMIT/MIT/MCC, MIT, BIT, triazine, and PCMC microbicides were tested under controlled laboratory conditions to determine their efficacy at the maximum manufacturer's recommended dose rate (Table 2). The metalworking fluids were known to contain high levels of mycobacteria prior to dosing with biocides. Samples were then dosed with biocides, incubated with agitation at room temperature and viable mycobacteria counts determined after 48 hours by plating onto Middlebrook 7H10 medium, with Tween 80, glycerin, cyclohexamide, chloramphenicol, and gentamycin to suppress the growth of unwanted microorganisms.
# The six metalworking fluid samples containing mycobacteria study from Example 7, were also tested using the same biocides with dosing at 50% of the maximum manufacturer's recommended rate (Table 2) under the same conditions. These metalworking fluids were known to contain high levels of mycobacteria prior to dosing with biocides. Samples were then dosed with biocides, incubated with agitation at room temperature and viable mycobacteria counts determined after 48 hours by plating onto Middlebrook 7H10 medium, with Tween 80, glycerin, cyclohexamide, chloramphenicol, and gentamycin to suppress the growth of unwanted microorganisms.
# [4] = Stability in pH 9 buffer solution at 70° C. (HPLC); settings: for loss of active ingredient: day 56
# Method: pH 9 buffer containing 0.069 M boric acid, 0.017 M citric acid, 0.066 M sodium phosphate was prepared in distilled water. Biocide was dosed into the pH 9 buffer solution and stored at 70° C. in a heat block. The samples were examined for active ingredient concentration at the time points after 5 hours, and 1, 3, 7, 23, 30, 35 and 56 days. Initial biocide doses were 166 ppm MI, 199 ppm BIT and 150 ppm BNPD.
# The samples were evaluated for active ingredient concentration via High Pressure Liquid Chromatography. Samples were taken from the heating blocks and allowed to cool to room temperature for 30 minutes. The samples were then diluted 1:20 in deionized water by adding 9.5 ml of deionized water to 0.5 grams of the samples in a 25 ml glass sample vial. The samples were mixed for 15 seconds and transferred to HPLC sample vials for analysis.
# [5] = system: Mycobacterium chelonae (ATCC 14472); test: High resolution MIC test, pure culture, 1/10x TSB; assay type: cell-based; settings: M. chelonae, 24 hours at 37° C.
# Method: (§3) The lowest concentration of microbicide required to inhibit bacteria was determined by a high resolution MIC test. Varying amounts of each microbicide were added to media in a 96-well microtiter plate. The media used for the MIC tests was 10% Trypicase Soy Broth ( 1/10× TSB). […] serial dilutions were performed on a Biomek 2000 Workstation to obtain a range of closely spaced concentrations of microbicides. A cell suspension of stationary phase microorganisms, adjusted to provide 10^6 colony forming units (CFU)/mL in each well for bacteria was added to the microtiter plate. The microtiter plates were incubated for 24 hours at 30° C. for Mycobacterium immunogenum and 37° C. for Mycobacterium chelonae. The presence or absence of microbial growth was determined by measuring the turbidity in each well using a Thermomax microplate reader set at an absorbance of 650 nm. The lowest concentration of compound in which no growth was observed was considered the MIC value for the microbicide. The MIC value for each microbicide was determined from the average of four determinations for bacteria.
# as §1
# [6] = system: Mycobacterium immunogenum (ATCC 700505); test: High resolution MIC test, pure culture, 1/10x TSB; assay type: cell-based; settings: M. immunogenum, 24 hours at 30° C.
# Method: as §3, §1
# [7] = system: Bacteria; test: MIC, average over bacteria; assay type: cell-based
# Method: (§4) Minimum inhibitory concentration (MIC) studies were conducted to determine the lowest level of biocide required to inhibit growth of bacteria and fungi. Tests were conducted in 96-well microtiter plates. Biocides were added to growth media in the plates and serially diluted to obtain a range of concentrations. Bacterial tests were conducted in trypticase soy broth (TSB; pH 7) using an overnight inoculum added at 10^6 colony forming units per ml. […] Fungal tests were conducted in malt extract broth (MEB; pH 4.7) using an 5-7 day inoculum added at 10^4 colony forming units per ml.
# [8] = system: Klebsiella pneumoniae; test: MIC, bacteria, TSB pH 7; assay type: cell-based; settings: 48 h
# Method: as §4
# [9] = system: Escherichia coli; test: MIC, bacteria, TSB pH 7; assay type: cell-based; settings: 48 h
# Method: as §4
# [10] = system: Enterobacter cloacae; test: MIC, bacteria, TSB pH 7; assay type: cell-based; settings: 48 h
# Method: as §4
# [11] = system: Proteus mirabilis; test: MIC, bacteria, TSB pH 7; assay type: cell-based; settings: 48 h
# Method: as §4
# [12] = system: Shewanella putrefaciens; test: MIC, bacteria, TSB pH 7; assay type: cell-based; settings: 48 h
# Method: as §4
# [13] = system: Enterobacter aerogenes; test: MIC, bacteria, TSB pH 7; assay type: cell-based; settings: Klebsiella aerogenes, 48 h
# Method: as §4
# [14] = system: Alcaligenes faecalis; test: MIC, bacteria, TSB pH 7; assay type: cell-based; settings: 48 h
# Method: as §4
# [15] = system: Pseudomonas aeruginosa; test: MIC, bacteria, TSB pH 7; assay type: cell-based; settings: 48 h, TSB pH 7, 25° C., two days
# Method: as §4
# [16] = system: Pseudomonas putida; test: MIC, bacteria, TSB pH 7; assay type: cell-based; settings: 48 h
# Method: as §4
# [17] = system: Pseudomonas fluorescens; test: MIC, bacteria, TSB pH 7; assay type: cell-based; settings: 48 h, TSB pH 7, 25° C., two days
# Method: as §4
# [18] = system: Pseudomonas oleovorans; test: MIC, bacteria, TSB pH 7; assay type: cell-based
# Method: as §4
# [19] = system: Citrobacter freundii; test: MIC, bacteria, TSB pH 7; assay type: cell-based; settings: 48 h, TSB pH 7, 25° C., two days
# Method: as §4
# [20] = Fluid 1, 48 hours, 50% of recommended maximum dose
# [21] = Fluid 1, 48 hours, 100% of recommended maximum dose
# [22] = Fluid 2, 48 hours, 50% of recommended maximum dose
# [23] = Fluid 2, 48 hours, 100% of recommended maximum dose
# [24] = Fluid 3, 48 hours, 50% of recommended maximum dose
# [25] = Fluid 3, 48 hours, 100% of recommended maximum dose
# [26] = Fluid 4, 48 hours, 50% of recommended maximum dose
# [27] = Fluid 4, 48 hours, 100% of recommended maximum dose
# [28] = Fluid 5, 48 hours, 50% of recommended maximum dose
# [29] = Fluid 5, 48 hours, 100% of recommended maximum dose
# [30] = Fluid 6, 48 hours, 50% of recommended maximum dose
# [31] = Fluid 6, 48 hours, 100% of recommended maximum dose
structure (smiles),measurement,setting,value
"O=c1[nH]sc2ccccc12 [BIT, 1,2-benzisothiazolin-3-one, reference compound]",Minimum Biocidal Concentration,[1],75 ppm active
same,Minimum Biocidal Concentration,[2],188 ppm active
same,Log Reduction in Mycobacterial Counts versus Control (no biocide),[3]; [20],0.00 log
same,Log Reduction in Mycobacterial Counts versus Control (no biocide),[3]; [21],0.00 log
same,Log Reduction in Mycobacterial Counts versus Control (no biocide),[3]; [22],0.00 log
same,Log Reduction in Mycobacterial Counts versus Control (no biocide),[3]; [23],0.00 log
same,Log Reduction in Mycobacterial Counts versus Control (no biocide),[3]; [24],0.00 log
same,Log Reduction in Mycobacterial Counts versus Control (no biocide),[3]; [25],0.60 log
same,Log Reduction in Mycobacterial Counts versus Control (no biocide),[3]; [26],0.00 log
same,Log Reduction in Mycobacterial Counts versus Control (no biocide),[3]; [27],0.00 log
same,Log Reduction in Mycobacterial Counts versus Control (no biocide),[3]; [28],0.00 log
same,Log Reduction in Mycobacterial Counts versus Control (no biocide),[3]; [29],0.06 log
same,Log Reduction in Mycobacterial Counts versus Control (no biocide),[3]; [30],0.00 log
same,Log Reduction in Mycobacterial Counts versus Control (no biocide),[3]; [31],0.00 log
same,No. of Fluids with ≧99% Kill (2-log reduction),[3]; 50% of recommended maximum dose,0
same,No. of Fluids with ≧99% Kill (2-log reduction),[3]; 100% of recommended maximum dose,0
same,Percent Remaining after: 5 hr,[4],98%
same,Percent Remaining after: 1 day,[4],97%
same,Percent Remaining after: 3 day,[4],94%
same,Percent Remaining after: 7 day,[4],92%
same,Percent Remaining after: 23 day,[4],86%
same,Percent Remaining after: 30 day,[4],71%
same,Percent Remaining after: 35 day,[4],63%
same,Percent Remaining after: 56 day,[4],68%
same,loss of active ingredient,[4],32%
same,Percent Remaining after: 0,[4],100%
same,Minimum Inhibitory Concentration,[5],63 ppm active
same,Minimum Inhibitory Concentration,[6],113 ppm active
"Cn1sccc1=O [MI, 2-methyl-4-isothiazolin-3-one]",Minimum Biocidal Concentration,[1],40 ppm active
same,Minimum Biocidal Concentration,[2],84 ppm active
same,MIC,[7]; average over the bacteria tested,24 µg/mL
same,MI: CMI + MI MIC Ratio,"[7]; bacteria, ratio of average MICs",10.9
same,MIC,[8],12 µg/mL
same,MIC,[9],31 µg/mL
same,MIC,[10],25 µg/mL
same,MIC,[11],21 µg/mL
same,MIC,[12],13 µg/mL
same,MIC,[13],82 µg/mL
same,MIC,[14],28 µg/mL
same,MIC,[15]; first listed,15 µg/mL
same,MIC,[15]; second listed,25 µg/mL
same,MIC,[16],13 µg/mL
same,MIC,[17]; first listed,31 µg/mL
same,MIC,[17]; second listed,16 µg/mL
same,MIC,"[18]; Ectopseudomonas oleovorans, 48 h, pH 7",6 µg/mL
same,MIC,"[18]; Pseudomonas oleovorans, second listed, TSB pH 7, 25° C., two days",6 ppm
same,MIC,[19]; first listed,25 µg/mL
same,MIC,[19]; second listed,41 µg/mL
same,Log Reduction in Mycobacterial Counts versus Control (no biocide),[3]; [20],3.48 log
same,Log Reduction in Mycobacterial Counts versus Control (no biocide),[3]; [21],5.88 log
same,Log Reduction in Mycobacterial Counts versus Control (no biocide),[3]; [22],3.80 log
same,Log Reduction in Mycobacterial Counts versus Control (no biocide),[3]; [23],5.00 log
same,Log Reduction in Mycobacterial Counts versus Control (no biocide),[3]; [24],0.00 log
same,Log Reduction in Mycobacterial Counts versus Control (no biocide),[3]; [25],2.00 log
same,Log Reduction in Mycobacterial Counts versus Control (no biocide),[3]; [26],2.00 log
same,Log Reduction in Mycobacterial Counts versus Control (no biocide),[3]; [27],3.64 log
same,Log Reduction in Mycobacterial Counts versus Control (no biocide),[3]; [28],0.06 log
same,Log Reduction in Mycobacterial Counts versus Control (no biocide),[3]; [29],1.90 log
same,Log Reduction in Mycobacterial Counts versus Control (no biocide),[3]; [30],1.78 log
same,Log Reduction in Mycobacterial Counts versus Control (no biocide),[3]; [31],3.88 log
same,kill (minimum degree of efficacy),"[3]; in all six samples of contaminated fluids, maximum recommended dose",> 90%
same,Percent Remaining after: 5 hr,[4],96%
same,Percent Remaining after: 1 day,[4],96%
same,Percent Remaining after: 3 day,[4],96%
same,Percent Remaining after: 7 day,[4],93%
same,Percent Remaining after: 23 day,[4],95%
same,Percent Remaining after: 30 day,[4],101%
same,Percent Remaining after: 35 day,[4],93%
same,Percent Remaining after: 56 day,[4],102%
same,loss of active ingredient,[4],no loss
same,Percent Remaining after: 0,[4],100%
same,Minimum Inhibitory Concentration,[5],15 ppm active
same,Minimum Inhibitory Concentration,[6],50 ppm active
